Drawing on US6960597B2, “Aza-bridged-bicyclic amino acid derivatives as α4 integrin antagonists” (Orth-McNeil Pharmaceutical, Inc., priority 2000, dated 2005), this text covers IC50 for 14 molecules.

Each structure is given as a SMILES string. Read-outs that look alike come from different tables or passages of the source.

Assay [1] concerns the target T1, human α4β7 (Homo sapiens, UniProt P13612+P26010).
T1 construct: expressed in transfected cells
T1 sequence (P13612 34-1032): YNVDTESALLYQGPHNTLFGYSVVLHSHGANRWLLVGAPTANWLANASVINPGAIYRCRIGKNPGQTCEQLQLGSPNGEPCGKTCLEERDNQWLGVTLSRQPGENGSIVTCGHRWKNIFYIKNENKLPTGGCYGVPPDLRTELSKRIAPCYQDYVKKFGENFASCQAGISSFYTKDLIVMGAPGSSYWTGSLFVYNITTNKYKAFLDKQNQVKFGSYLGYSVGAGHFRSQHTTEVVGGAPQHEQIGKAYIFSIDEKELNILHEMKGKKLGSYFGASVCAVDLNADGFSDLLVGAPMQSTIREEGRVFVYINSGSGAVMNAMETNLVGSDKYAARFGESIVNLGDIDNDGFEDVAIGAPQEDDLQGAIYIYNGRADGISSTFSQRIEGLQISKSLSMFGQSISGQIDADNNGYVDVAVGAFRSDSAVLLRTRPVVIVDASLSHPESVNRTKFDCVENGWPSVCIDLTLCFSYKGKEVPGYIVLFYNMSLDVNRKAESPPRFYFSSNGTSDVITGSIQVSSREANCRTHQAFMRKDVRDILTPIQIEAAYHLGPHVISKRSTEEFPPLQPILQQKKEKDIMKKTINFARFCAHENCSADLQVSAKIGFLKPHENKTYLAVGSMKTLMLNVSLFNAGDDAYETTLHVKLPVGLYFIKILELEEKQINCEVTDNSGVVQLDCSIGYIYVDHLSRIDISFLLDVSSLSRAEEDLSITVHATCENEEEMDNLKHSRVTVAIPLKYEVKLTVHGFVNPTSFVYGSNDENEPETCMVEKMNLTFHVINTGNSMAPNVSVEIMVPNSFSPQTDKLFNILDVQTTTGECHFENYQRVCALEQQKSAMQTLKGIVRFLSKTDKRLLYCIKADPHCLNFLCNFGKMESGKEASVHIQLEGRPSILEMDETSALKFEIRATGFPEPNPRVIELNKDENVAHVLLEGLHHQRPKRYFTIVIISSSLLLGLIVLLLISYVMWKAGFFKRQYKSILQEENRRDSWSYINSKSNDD
T1 sequence (P26010 20-798): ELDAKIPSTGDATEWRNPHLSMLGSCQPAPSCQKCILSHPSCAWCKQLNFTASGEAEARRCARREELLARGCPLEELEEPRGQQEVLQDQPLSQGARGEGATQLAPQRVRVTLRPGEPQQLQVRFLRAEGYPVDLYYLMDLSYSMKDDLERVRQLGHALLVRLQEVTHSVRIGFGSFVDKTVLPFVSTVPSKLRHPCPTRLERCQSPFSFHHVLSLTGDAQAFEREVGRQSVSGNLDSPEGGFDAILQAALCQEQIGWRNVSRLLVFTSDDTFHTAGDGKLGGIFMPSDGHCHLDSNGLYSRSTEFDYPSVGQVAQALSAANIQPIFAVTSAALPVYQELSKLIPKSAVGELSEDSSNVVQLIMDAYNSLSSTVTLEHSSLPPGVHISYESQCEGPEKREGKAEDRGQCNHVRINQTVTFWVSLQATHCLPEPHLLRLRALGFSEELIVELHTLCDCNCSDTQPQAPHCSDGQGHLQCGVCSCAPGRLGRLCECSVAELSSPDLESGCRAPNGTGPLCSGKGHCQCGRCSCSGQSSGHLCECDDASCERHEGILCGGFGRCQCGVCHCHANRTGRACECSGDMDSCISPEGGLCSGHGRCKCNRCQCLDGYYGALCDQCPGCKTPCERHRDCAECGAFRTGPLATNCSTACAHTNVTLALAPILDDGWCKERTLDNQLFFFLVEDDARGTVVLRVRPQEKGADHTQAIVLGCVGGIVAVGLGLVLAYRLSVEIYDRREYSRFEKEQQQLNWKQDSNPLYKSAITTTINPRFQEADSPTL
As to the kind of experiment: α4β7-K562 Cell Adhesion Assay (α4β7 Mediated Adhesion/VCAM-1). The assay is classed as cell-based. On the procedure:
α4β7-K562 Cell Adhesion Assay (α4β7 Mediated Adhesion/VCAM-1)
(§1) Immulon 96 well plates (Dynex) were coated with 100 μL recombinant hVCAM-1 at 4.0 μg/mL in 0.05 M NaCO3 buffer pH 9.0 overnight at 4° C. (R&D Systems). Plates were washed 3 times in PBS with 1% BSA and blocked for 1 h @ room temperature in this buffer. PBS was removed and compounds to be tested (50 μL) were added at 2× concentration. A stable cell line of K562 cells expressing human α4β7, (50 μL at 2×10^6/mL) labeled with 5 μM Calcein AM (Molecular Probes) for 1 h at 37° C., were added to each well and allowed to adhere for 1 h at room temperature. Plates were washed 3× in PBS+1% BSA and cells were lysed for 15 minutes in 100 μL of 1 M Tris pH 8.0 with 1% SDS. The plate was read at 485 nm excitation and 530 nm emission.

In assay [2] the target is T2, α4β1 integrin receptor (Homo sapiens, UniProt P05556+P13612).
T2 construct: Ramos Cell Adhesion Assay (α4β1 Mediated Adhesion/VCAM-1); endogenous in cells; host or cells: Ramos cells
As to the kind of experiment: Ramos Cell Adhesion Assay (α4β1 Mediated Adhesion/VCAM-1). The assay is classed as cell-based. On the procedure:
Ramos Cell Adhesion Assay (α4β1 Mediated Adhesion/VCAM-1)
as §1, with “Ramos cells,” for “A stable cell line of K562 cells expressing human α4β7,”

[3] abbreviates: Table IV, read-out: Inhibition of Binding of K562 Cells to Immobilized VCAM-1 IC50.
Where [4] appears, read: Table III, read-out: Inhibition of Binding of Ramos Cells to Immobilized VCAM-1 IC50.
The mark [5] stands for this setting: Inhibition of Binding of Ramos Cells to Immobilized VCAM-1 IC50, Table III.
The mark [6] stands for this setting: Table IV, μM, read-out: Inhibition of Binding of K562 Cells to Immobilized VCAM-1 IC50.
[7] abbreviates: Table III, μM, read-out: Inhibition of Binding of Ramos Cells to Immobilized VCAM-1 IC50.
Setting [8] is: Table I, racemic mixtures and resolved (S,S) and (R,S) diastereomers, read-out: Antagonist IC50 Activity α4β7.
Where [9] appears, read: Table I, racemic mixtures and resolved (S,S) and (R,S) diastereomers, read-out: Antagonist IC50 Activity α4β1.

T2 sequence (P05556 21-798, one chain of several): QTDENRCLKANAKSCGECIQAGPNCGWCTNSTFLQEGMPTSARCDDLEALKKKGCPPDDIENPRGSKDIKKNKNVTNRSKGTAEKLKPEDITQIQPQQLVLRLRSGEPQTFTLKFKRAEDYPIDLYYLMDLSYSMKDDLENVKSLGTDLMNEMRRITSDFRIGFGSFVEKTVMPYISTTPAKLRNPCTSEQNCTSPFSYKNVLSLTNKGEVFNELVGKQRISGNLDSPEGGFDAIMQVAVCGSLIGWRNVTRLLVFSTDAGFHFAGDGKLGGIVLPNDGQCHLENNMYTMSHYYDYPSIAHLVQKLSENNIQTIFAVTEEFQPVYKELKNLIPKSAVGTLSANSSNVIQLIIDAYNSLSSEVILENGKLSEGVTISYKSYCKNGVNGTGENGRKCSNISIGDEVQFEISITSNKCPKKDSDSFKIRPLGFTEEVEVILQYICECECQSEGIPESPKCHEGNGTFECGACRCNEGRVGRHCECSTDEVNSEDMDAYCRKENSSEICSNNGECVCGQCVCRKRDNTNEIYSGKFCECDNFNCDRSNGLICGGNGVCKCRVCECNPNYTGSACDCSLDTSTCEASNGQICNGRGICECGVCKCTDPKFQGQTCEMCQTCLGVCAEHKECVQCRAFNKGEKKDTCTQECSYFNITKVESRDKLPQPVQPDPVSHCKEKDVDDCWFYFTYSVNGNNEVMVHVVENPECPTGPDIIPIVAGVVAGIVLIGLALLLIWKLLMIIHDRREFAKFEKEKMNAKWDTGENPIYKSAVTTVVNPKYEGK

The term IC50 denotes the concentration that gives 50% inhibition. For `O=C(Nc1ccc(C[C@H](NC(=O)C2C3CCC(CC3)N2S(=O)(=O)c2cccs2)C(=O)O)cc1)c1c(Cl)cccc1Cl` (stereo partly drawn) [Cpd 66, 4-[(2,6-dichlorobenzoyl)amino]-N-[[2-(2-thienylsulfonyl)-2-azabicyclo[2.2.2]oct-3-yl]carbonyl]-L-phenylalanine], the IC50 is 0.186 µM in assay [1] (setting [3]) and 0.017 µM in assay [2] (setting [4]).

On to `CN(C)C(=O)Oc1ccc(C[C@H](NC(=O)C2C3CCC(CC3)N2S(=O)(=O)c2ccccc2)C(=O)O)cc1` (mixture of isomers) [Cpd 52, O-[(dimethylamino)carbonyl]-N-[[2-(phenylsulfonyl)-2-azabicyclo[2.2.2]oct-3-yl]carbonyl]-L-tyrosine], for which the IC50 in assay [1] worked out at 0.998 µM; in assay [2] (Antagonist IC50 Activity α4β1, Table I, racemic mixtures and resolved (S,S) and (R,S) diastereomers) it was 0.124 µM; in assay [2] (setting [5]) it was 0.124 µM.

In the case of `Cc1ccc(S(=O)(=O)N2C3CCC(CC3)C2C(=O)N[C@@H](Cc2ccc(NC(=O)c3ccccc3C(F)(F)F)cc2)C(=O)O)cc1` (stereo partly drawn) [Cpd 12, 4-[[2-(trifluoromethyl)benzoyl]amino]-N-[[2-[(4-methylphenyl)sulfonyl]-2-azabicyclo[2.2.2]oct-3-yl]carbonyl]-L-phenylalanine], the IC50 in assay [1] (setting [3]) worked out at 1.08 µM; in assay [2] (setting [4]), 0.104 µM.

Regarding `Cc1ccc(S(=O)(=O)N2C3CCC(CC3)C2C(=O)N[C@@H](Cc2ccc(NC(=O)c3c(Cl)cc(Cl)cc3Cl)cc2)C(=O)O)cc1` (stereo partly drawn) [Cpd 2, 4-[(2,4,6-trichlorobenzoyl)amino]-N-[[2-[(4-methylphenyl)sulfonyl]-2-azabicyclo[2.2.2]oct-3-yl]carbonyl]-L-phenylalanine], the IC50 came to 0.098 µM in assay [1] (setting [3]) and 0.051 µM in assay [2] (setting [4]).

Consider `Cc1ccc(S(=O)(=O)N2C3CCC(CC3)C2C(=O)N[C@@H](Cc2ccc(NC(=O)c3c(Cl)cccc3Cl)cc2)C(=O)O)cc1` (mixture of isomers) [Cpd 1, 4-[(2,6-dichlorobenzoyl)amino]-N-[[2-[(4-methylphenyl)sulfonyl]-2-azabicyclo[2.2.2]oct-3-yl]carbonyl]-L-phenylalanine], for which the IC50 in assay [1] (setting [3]) came out at 0.142 µM; in assay [2] (setting [4]), 0.045 µM.

Take `Cc1ccc(S(=O)(=O)N2C3CCC(CC3)C2C(=O)N[C@@H](Cc2ccc(-n3cccc3)cc2)C(=O)O)cc1` (stereo partly drawn) [Cpd 32, 4-(1H-pyrrol-1-yl)-N-[[2-[(4-methylphenyl)sulfonyl]-2-azabicyclo[2.2.2]oct-3-yl]carbonyl]-L-phenylalanine]: the values for the IC50 in assay [1] (setting [6]) and in assay [2] (setting [7]) were over 10 µM and over 5 µM, respectively.

Regarding `COc1cccc(OC)c1C(=O)Nc1ccc(C[C@H](NC(=O)[C@H]2C3CCC(C3)N2S(=O)(=O)c2ccccc2)C(=O)O)cc1` (stereo partly drawn) [Cpd 19b, 4-[(2,6-dimethoxybenzoyl)amino]-N-[[(3R)-2-(phenylsulfonyl)-2-azabicyclo[2.2.1]hept-3-yl]carbonyl]-L-phenylalanine], the IC50 in assay [1] (setting [8]) is 3.22 µM; in assay [2] (setting [9]), 1.21 µM; in assay [2] (setting [4]) it was 1.21 µM.

On to `CN(C)C(=O)Oc1ccc(C[C@H](NC(=O)C2C3CCC(CC3)N2S(=O)(=O)c2cccs2)C(=O)O)cc1` (stereo partly drawn) [Cpd 63, O-[(dimethylamino)carbonyl]-N-[[2-(2-thienylsulfonyl)-2-azabicyclo[2.2.2]oct-3-yl]carbonyl]-L-tyrosine], for which the IC50 was 0.286 µM in assay [1] and 0.112 µM in assay [2] (setting [5]).

Regarding `O=C(N[C@@H](CCc1ccccc1)C(=O)O)C1C2CCC(CC2)N1S(=O)(=O)c1ccccc1` (stereo partly drawn) [Cpd 46, α(S)-[[[2-(phenylsulfonyl)-2-azabicyclo[2.2.2]oct-3-yl]carbonyl]amino]-benzenebutanoic acid], the half-inhibitory concentration (IC50) in assay [1] (setting [6]) was over 10 µM; in assay [2] (setting [7]), over 5 µM.

For the molecule `Cc1ccc(S(=O)(=O)N2C3CCC(CC3)C2C(=O)N[C@@H](Cc2cccc(NC(=O)c3c(F)cccc3F)c2)C(=O)O)cc1` (stereo partly drawn) [Cpd 35, 3-[(2,6-difluorobenzoyl)amino]-N-[[2-[(4-methylphenyl)sulfonyl]-2-azabicyclo[2.2.2]oct-3-yl]carbonyl]-L-phenylalanine], the IC50 in assay [1] (setting [6]) was over 10 µM; in assay [2] (setting [7]), over 5 µM.

For the molecule `O=C(O)[C@H](Cc1ccc(NC(=O)[C@@H]2C3CCC(CC3)N2S(=O)(=O)c2ccccc2)cc1)NC(=O)[C@@H]1C2CCC(CC2)N1S(=O)(=O)c1ccccc1` [Cpd 70, 4-[[[(3S)-2-(phenylsulfonyl)-2-azabicyclo[2.2.2]oct-3-yl]carbonyl]amino]-N-[[(3S)-2-(phenylsulfonyl)-2-azabicyclo[2.2.2]oct-3-yl]carbonyl]-L-phenylalanine], the IC50 in assay [1] (setting [3]) turned out to be 2.03 µM; in assay [2] (setting [4]) it was 0.37 µM.

Take `O=C(Nc1ccc(C[C@H](NC(=O)[C@H]2C3CCC(C3)N2S(=O)(=O)c2ccccc2)C(=O)O)cc1)c1c(F)cccc1F` (stereo partly drawn) [Cpd 5b, 4-[(2,6-difluorobenzoyl)amino]-N-[[(3R)-2-(phenylsulfonyl)-2-azabicyclo[2.2.1]hept-3-yl]carbonyl]-L-phenylalanine]: the values for the IC50 in assay [1] (setting [8]), in assay [2] (setting [9]) and in assay [2] (setting [4]) were 3.38 µM, 0.394 µM and 0.394 µM, respectively.

As to `CC(C)N(C(=O)Oc1ccc(C[C@H](NC(=O)C2C3CCC(CC3)N2S(=O)(=O)c2ccccc2)C(=O)O)cc1)C(C)C` (stereo partly drawn) [Cpd 57, O-[[bis(1-methylethyl)amino]carbonyl]-N-[[2-(phenylsulfonyl)-2-azabicyclo[2.2.2]oct-3-yl]carbonyl]-L-tyrosine], the IC50 in assay [1] (setting [6]) is over 5 µM; in assay [2] (setting [4]), 0.757 µM.

`COc1cccc(OC)c1C(=O)Nc1ccc(C[C@H](NC(=O)C2C3CCC(CC3)N2S(=O)(=O)c2ccc(C)cc2)C(=O)O)cc1` (stereo partly drawn) [Cpd 3, 4-[(2,6-dimethoxybenzoyl)amino]-N-[[2-[(4-methylphenyl)sulfonyl]-2-azabicyclo[2.2.2]oct-3-yl]carbonyl]-L-phenylalanine]: the figures for the IC50 in assay [1] (setting [3]) and in assay [2] (setting [4]) were 1.94 µM and 0.05 µM, respectively.
